ChEMBL document CHEMBL3425418 (Bioorg Med Chem Lett, 2015)

How the values were obtained:
Ephrin type-B receptor 2 = biological target: T1, Ephrin type-B receptor 2 (Homo sapiens, UniProt P29323); experiment: Inhibition of recombinant EphB2 (unknown origin) by cell-free assay
T1 sequence (P29323 whole entry): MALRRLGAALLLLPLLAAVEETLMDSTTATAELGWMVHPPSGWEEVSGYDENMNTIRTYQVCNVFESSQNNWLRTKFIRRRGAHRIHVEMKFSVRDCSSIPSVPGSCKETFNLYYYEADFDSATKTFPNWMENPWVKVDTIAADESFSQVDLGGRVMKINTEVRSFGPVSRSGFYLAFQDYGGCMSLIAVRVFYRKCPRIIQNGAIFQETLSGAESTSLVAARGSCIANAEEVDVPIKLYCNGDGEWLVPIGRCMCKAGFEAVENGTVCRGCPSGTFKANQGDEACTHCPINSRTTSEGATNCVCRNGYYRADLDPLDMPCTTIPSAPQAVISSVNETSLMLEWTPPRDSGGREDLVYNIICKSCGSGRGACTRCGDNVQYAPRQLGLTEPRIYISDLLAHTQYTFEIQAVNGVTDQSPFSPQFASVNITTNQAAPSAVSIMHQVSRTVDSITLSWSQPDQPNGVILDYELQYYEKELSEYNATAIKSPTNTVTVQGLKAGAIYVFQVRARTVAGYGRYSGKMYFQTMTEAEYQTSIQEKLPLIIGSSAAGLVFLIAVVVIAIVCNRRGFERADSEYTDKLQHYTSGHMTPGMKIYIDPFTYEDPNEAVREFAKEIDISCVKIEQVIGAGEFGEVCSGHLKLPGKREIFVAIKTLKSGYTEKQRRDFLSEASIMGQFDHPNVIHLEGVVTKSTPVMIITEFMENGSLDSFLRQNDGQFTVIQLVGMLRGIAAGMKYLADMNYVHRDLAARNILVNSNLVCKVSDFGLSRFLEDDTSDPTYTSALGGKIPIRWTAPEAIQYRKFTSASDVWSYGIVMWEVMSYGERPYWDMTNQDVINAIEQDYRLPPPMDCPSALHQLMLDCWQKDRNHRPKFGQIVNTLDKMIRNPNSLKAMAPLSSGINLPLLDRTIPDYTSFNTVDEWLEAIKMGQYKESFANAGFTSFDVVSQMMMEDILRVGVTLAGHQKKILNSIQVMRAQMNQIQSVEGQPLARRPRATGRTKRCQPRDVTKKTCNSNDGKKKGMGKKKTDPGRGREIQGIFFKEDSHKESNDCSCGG

[1] = Tmax in Sprague-Dawley rat at 2.5 mg/kg, po; format: ADME, organism-based; design: dose 2.5 mg/kg, route oral; details: in vivo
[2] = Half life in Sprague-Dawley rat at 2.5 mg/kg, po; format: ADME, organism-based; design: dose 2.5 mg/kg, route oral; details: in vivo
[3] = Cmax in Sprague-Dawley rat at 2.5 mg/kg, po; format: ADME, organism-based; design: dose 2.5 mg/kg, route oral; details: in vivo
[4] = AUC (0 to time) in Sprague-Dawley rat at 2.5 mg/kg, po; format: ADME, organism-based; design: dose 2.5 mg/kg, route oral; details: plasma
[5] = AUC (0 to infinity) in Sprague-Dawley rat at 2.5 mg/kg, po; format: ADME, organism-based; design: time infinity, dose 2.5 mg/kg, route oral; details: plasma
[6] = Mean residence time in Sprague-Dawley rat at 2.5 mg/kg, po; format: ADME, organism-based; design: dose 2.5 mg/kg, route oral; details: in vivo
Homo sapiens [7] = organism: Homo sapiens; experiment: Toxicity in metastatic renal cell carcinoma patient assessed as hypertension; format: organism-based
Homo sapiens [8] = organism: Homo sapiens; experiment: Toxicity in metastatic renal cell carcinoma patient assessed as dysphonia; format: organism-based

Compound	IC50 (Ephrin type-B receptor 2)	Tmax [1]	half-life [2]	Cmax [3]	AUC [4]	AUC(0-inf) [5]	MRT [6]	Activity (Homo sapiens [7])	Activity (Homo sapiens [8])
[2H]C([2H])([2H])Oc1cc2nccc(Oc3ccc(NC(=O)Nc4cc(C)on4)c(Cl)c3)c2cc1OC([2H])([2H])[2H]	26.8 nM	5 h	666 min	3980 ng/mL	69700 ng·h/mL	73900 ng·h/mL	15.8 h	–	–
CNC(=O)c1cc(Oc2ccc(NC(=O)Nc3ccc(Cl)c(C(F)(F)F)c3)cc2)ccn1 [SORAFENIB]	–	–	–	–	–	–	–	34%	5%
COc1cc2nccc(Oc3ccc(NC(=O)Nc4cc(C)on4)c(Cl)c3)c2cc1OC [TIVOZANIB]	17.5 nM	4.8 h	561 min	3060 ng/mL	47500 ng·h/mL	49100 ng·h/mL	13.4 h	44%	21%
